Laboratory results: patent publication US20250154123A1, “COOLING COMPOUNDS AND COMPOSITIONS” (V. MANE FILS, priority 2022, published 2025)

What was measured:
[1] = target: T1, hTRPM8 (Homo sapiens, UniProt Q7Z2W7); assay: EC50 measurement on hTRPM8 (response curve); format: cell-based; settings: for EC50 on hTRPM8 compared with WS-3 and WS-5: Table 3; for EC50: hTRPM8, response curve
T1 construct: expressed in transfected cells; host or cells: CHO-KJ cells [sic]
Method: (§1) The compounds were evaluated in vitro on CHO-KJ cells expressing the gene encoding the hTRPM8 ion channel (Table 1). Channel activation is determined by fluorometric measurement of […] calcium using FLUO-8. The activity of the compounds was measured relative to icilin (known hTRPM8 agonist).
A response curve was developed for compounds 1, 3, 5 and 37 which made it possible to determine the EC50 (half maximal effective concentration) values on hTRPM8 and compare them with the EC50 values of the comparative compounds (Table 3).

[2] = target: T2, hTRPM8 ion channel (Homo sapiens, UniProt Q7Z2W7); assay: Primary in vitro screening on hTRPM8 (CHO-KJ cells, FLUO-8 calcium fluorometry, relative to icilin); format: cell-based; settings: for % activation vs iciline: CHO-KJ cells expressing hTRPM8; for activation on hTRPM8 compared with comparative molecules (Physcool, WS-5, WS-3, l-isopulegol, l-menthol, menthyl lactate): primary screening, Table 1
T2 construct: expressed in transfected cells; host or cells: CHO-KJ cells [sic]
T2 sequence (Q7Z2W7 whole entry): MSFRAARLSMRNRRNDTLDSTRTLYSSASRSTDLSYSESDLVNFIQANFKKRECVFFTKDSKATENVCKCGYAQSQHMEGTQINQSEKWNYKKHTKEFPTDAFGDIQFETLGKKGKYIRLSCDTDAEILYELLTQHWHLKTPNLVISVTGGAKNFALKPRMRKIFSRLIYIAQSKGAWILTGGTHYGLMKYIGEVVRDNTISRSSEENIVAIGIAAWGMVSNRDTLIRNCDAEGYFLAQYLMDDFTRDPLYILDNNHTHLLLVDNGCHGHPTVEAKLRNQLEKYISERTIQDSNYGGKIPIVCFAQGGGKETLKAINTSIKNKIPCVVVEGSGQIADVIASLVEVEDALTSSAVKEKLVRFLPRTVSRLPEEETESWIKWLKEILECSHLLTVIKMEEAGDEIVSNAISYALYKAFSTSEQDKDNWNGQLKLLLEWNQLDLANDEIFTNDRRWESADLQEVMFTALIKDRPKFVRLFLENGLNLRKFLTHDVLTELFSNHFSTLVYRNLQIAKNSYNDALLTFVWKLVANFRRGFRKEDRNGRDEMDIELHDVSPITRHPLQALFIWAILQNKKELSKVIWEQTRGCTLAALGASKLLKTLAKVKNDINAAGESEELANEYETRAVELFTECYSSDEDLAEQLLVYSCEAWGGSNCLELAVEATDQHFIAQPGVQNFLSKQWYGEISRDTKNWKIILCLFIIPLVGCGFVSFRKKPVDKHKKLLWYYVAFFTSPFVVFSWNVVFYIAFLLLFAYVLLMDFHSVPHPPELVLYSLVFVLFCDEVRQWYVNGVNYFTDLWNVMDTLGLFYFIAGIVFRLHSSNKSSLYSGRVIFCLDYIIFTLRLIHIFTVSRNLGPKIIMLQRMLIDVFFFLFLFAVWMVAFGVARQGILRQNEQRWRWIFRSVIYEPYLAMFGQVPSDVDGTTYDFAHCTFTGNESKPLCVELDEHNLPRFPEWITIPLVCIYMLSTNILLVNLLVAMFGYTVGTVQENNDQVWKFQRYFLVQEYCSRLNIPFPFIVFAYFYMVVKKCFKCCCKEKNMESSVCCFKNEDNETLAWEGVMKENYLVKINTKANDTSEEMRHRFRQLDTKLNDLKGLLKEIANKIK
Method: as §1

[3] = target: T1, hTRPM8; assay: Secondary in vitro screening on hTRPM8 at 5 μM versus WS-3; format: cell-based; settings: WS3 as reference compound
Method: as §1
The compounds 1 to 40 were tested on hTRPM8 at 5 μM using WS3 as the reference compound (Table 2).

[4] = Organoleptic evaluation in still water by a trained panel (cooling intensity over time); format: in vivo, human
Text: Inventive compounds 1, 2 and 5 were organoleptically evaluated in still water by a trained panel. […] […] These inventive compounds appear to behave similarly to the comparative compounds.

[5] = Chewing gum evaluation protocol, cooling intensity rated 0-10 by 6 trained panelists over 10 min; format: in vivo, human; settings: 0.20 wt % in chewing gum, chewed 10 min, 6 panelists
Method: An unflavored chewing gum paste was prepared using the following formulation: Sorbitol (52.4 wt %), gum base (30.0 wt %), maltitol syrup (7.0 wt %), glycerine (5.0 wt %), mannitol (5.0 wt %), soy lecithin (0.4 wt %), acesulfame-K (0.1 wt %), and aspartame (0.1 wt %). The paste was warmed 1-2 min using a micro-wave to soften the mixture. After adding the cooling agent (0.20 wt % Compound 1), the paste was kneaded to homogenise the product. Then the paste is stretched using a sheeter, flatted at 2 mm thick, and cut in regular rectangular pieces (12×42 mm). Chewing-gums pieces are packed in plastic bag and put 1 week at room temperature to let them stabilise. Comparative chewing gum samples (A-C) were also prepared using 0.26 wt % PHYSCOOL™; 0.21 wt % WS-3™; and 0.17 wt % WS-23™, respectively.
A chewing gum evaluation protocol was performed by 6 trained panelists, where the chewing gum was chewed for 10 min while holding the panelist's mouth closed. The cooling intensity was rated from 0 (not perceived) to 10 (very intense) at 5 sec, 15 sec, 30 sec, 45 sec, 1 min, 1.5 min, 2 min, and then every minute until 10 minutes.

T1 sequence (Q7Z2W7 whole entry): as above

| SMILES | EC50 on hTRPM8 compared with WS-3 and WS-5 [1] | EC50 [1] [µM] | % activation vs iciline ([2]; concentration 104 μM) [%] | activation on hTRPM8 compared with comparative molecules (Physcool, WS-5, WS-3, l-isopulegol, l-menthol, menthyl lactate) [2] | activation at 5 µM [3] [%] | % activation vs iciline ([2]; concentration 96 μM) [%] | cooling effect versus Physcool ([4]; equimolar, larger panel, over 10 min, FIG. 3) | freshness in the mouth ([4]; still water, trained panel) | % activation vs iciline ([2]; concentration 156 μM) [%] | duration of cooling intensity in chewing gum, similar to WS-3 (0.21 wt %) and WS-23 (0.17 wt %) [5] | cooling intensity and duration in chewing gum versus Comparative Sample A (0.26 wt % PHYSCOOL) ([5]; average) |
| --- | --- | --- | --- | --- | --- | --- | --- | --- | --- | --- | --- |
| CC(C)[C@@H]1CC[C@@H](C)CC12COC(C)(C)OC2 [Compound 3, (7S,1OR)-7-isopropyl-3,3,10-trimethyl-2,4-dioxaspiro[5.5]undecane] | EC50 values lower than WS-3™ and similar to WS-5™ | 2.5 | 99 | greater activations than the comparative molecules | 94 |  |  |  |  |  |  |
| COc1cc(C2OCC3(CO2)C[C@H](C)CC[C@H]3C(C)C)ccc1O (stereo partly drawn) [Compound 5, 4-((7S,10R)-7-isopropyl-10-methyl-2,4-dioxaspiro[5.5]undecan-3-yl)-2-methoxyphenol] |  | 39 |  | greater activations than the comparative molecules | 16 | 176 |  |  |  |  |  |
| CC(C)[C@@H]1CC[C@@H](C)CC1(CO)CO [Compound 1, ((2S,5R)-2-isopropyl-5-methylcyclohexane-1,1-diyl)dimethanol] | EC50 values lower than WS-3™ and similar to WS-5™ | 4.6 |  | greater activations than the comparative molecules | 99 |  | persistent cooling effect similar to Physcool® but with a greater intensity | freshness in the mouth with both an attack and a good persistence | 199 | long cooling intensity out to 10 minutes | more initial cooling intensity and longer lasting duration than Comparative Sample A |
